Test [1] deals with NCI-H460. Description: Cytotoxicity against human H460 cells at 30 ug/mL after 48 hrs by MTT assay. It is filed as functional, cell-based. For orientation: Formazan colour is commonly taken as a measure of viable cells.
For test [2], the system named is NCI-H460. Description: Cytotoxicity against human H460 cells after 48 hrs by MTT assay. Particulars: NCI-H460, 48 h, read-out: LD50 (the source's name). It is filed as functional.

Activity calls are given as the source filed them. The rule behind the calls is not given here. *1 amine or outer side, *2 acyl side, *3 side chain or, on linkers, in order; H or OH if unused. Where a SMILES comes first, the peptide text is derived from it. Bridges are numbered along the chain shown (N, C = ends). [ ]: non-standard residue; d: D form. X1 = C#CCCC[C@H](O[*:2])C(C)(C)C(=O)[*:1]; X3 = C=CCCC[C@H](O[*:2])C(C)(C)C(=O)[*:1]; X2 = CCCCC[C@H](O[*:2])C(C)(C)C(=O)[*:1]; Hmp(2R,3S) = CC[C@H](C)[C@@H](O)C(=O)O; PhLac = O=C(O)[C@@H](O)Cc1ccccc1; NMeV = CN[C@H](C(=O)O)C(C)C; NMeA = CN[C@@H](C)C(=O)O

For four molecules, Activity and CC50 results are on record in ChEMBL document CHEMBL2146422, “Viequeamide A, a cytotoxic member of the kulolide superfamily of cyclic depsipeptides from a marine button cyanobacterium” (2012).

Take `C#CCCC[C@@H]1OC(=O)[C@H](C(C)C)NC(=O)[C@H](C)N(C)C(=O)[C@@H]2CCCN2C(=O)[C@H](Cc2ccccc2)OC(=O)[C@H](C(C)C)N(C)C(=O)[C@H](C(C)C)NC(=O)C1(C)C` (V[NMeV][PhLac]P[NMeA]V; linker N-C via X1): in test [1], the outcome was inactive.
The same measure, in the same setting: next, `CCCCC[C@@H]1OC(=O)[C@H](C(C)C)NC(=O)[C@H](C)N(C)C(=O)[C@@H]2CCCN2C(=O)[C@H](Cc2ccccc2)OC(=O)[C@H](C(C)C)N(C)C(=O)[C@H](C(C)C)NC(=O)C1(C)C` (V[NMeV][PhLac]P[NMeA]V; linker N-C via X2): “inactive”.
Turning to `C#CCCC[C@@H]1OC(=O)[C@H]([C@@H](C)O)NC(=O)[C@H](C(C)C)N(C)C(=O)[C@@H]2CCCN2C(=O)[C@@H]([C@@H](C)CC)OC(=O)[C@H](C(C)C)N(C)C(=O)[C@H](C(C)C)NC(=O)C1(C)C` [VIEQUEAMIDE A] (V[NMeV][Hmp(2R,3S)]P[NMeV]T; linker N-C via X1), in test [2], the CC50 is 60 nM.
Take `C=CCCC[C@@H]1OC(=O)[C@H](C(C)C)NC(=O)[C@H](C)N(C)C(=O)[C@@H]2CCCN2C(=O)[C@H](Cc2ccccc2)OC(=O)[C@H](C(C)C)N(C)C(=O)[C@H](C(C)C)NC(=O)C1(C)C` (V[NMeV][PhLac]P[NMeA]V; linker N-C via X3): in test [1], the outcome was inactive.
